{
  "source": "patent US20250313556A1",
  "about": "“CERTAIN CHEMICAL ENTITIES, COMPOSITIONS, AND METHODS” (MRJA THERAPEUTICS, INC., priority 2022, published 2025)",
  "data": [
    {"molecular_target": "c-KIT (Homo sapiens, UniProt P10721)", "sequence (P10721 26-976)": "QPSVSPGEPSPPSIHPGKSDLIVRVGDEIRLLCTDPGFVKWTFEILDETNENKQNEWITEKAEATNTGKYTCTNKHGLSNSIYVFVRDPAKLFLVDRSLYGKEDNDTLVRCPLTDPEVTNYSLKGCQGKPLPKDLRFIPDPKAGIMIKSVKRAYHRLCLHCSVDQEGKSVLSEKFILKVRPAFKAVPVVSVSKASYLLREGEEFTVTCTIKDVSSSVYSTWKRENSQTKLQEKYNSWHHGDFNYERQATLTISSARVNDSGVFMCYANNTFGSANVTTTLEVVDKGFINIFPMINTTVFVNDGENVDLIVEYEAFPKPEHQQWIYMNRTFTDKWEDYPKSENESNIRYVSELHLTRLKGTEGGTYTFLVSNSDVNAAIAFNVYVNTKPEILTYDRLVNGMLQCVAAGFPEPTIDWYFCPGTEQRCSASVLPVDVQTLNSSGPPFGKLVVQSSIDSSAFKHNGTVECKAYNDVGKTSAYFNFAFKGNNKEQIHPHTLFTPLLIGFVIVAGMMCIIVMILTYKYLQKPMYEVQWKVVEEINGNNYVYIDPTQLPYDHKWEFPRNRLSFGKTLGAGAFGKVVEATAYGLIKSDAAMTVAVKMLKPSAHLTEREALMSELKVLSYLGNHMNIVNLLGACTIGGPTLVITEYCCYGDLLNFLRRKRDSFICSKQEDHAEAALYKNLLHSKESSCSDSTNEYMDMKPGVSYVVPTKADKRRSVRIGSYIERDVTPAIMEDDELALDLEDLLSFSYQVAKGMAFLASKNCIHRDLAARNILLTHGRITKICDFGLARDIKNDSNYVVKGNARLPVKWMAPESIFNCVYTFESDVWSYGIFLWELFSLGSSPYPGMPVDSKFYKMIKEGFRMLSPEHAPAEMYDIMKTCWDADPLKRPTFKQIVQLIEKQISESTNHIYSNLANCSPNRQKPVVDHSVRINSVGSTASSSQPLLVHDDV", "assay": "c-KIT ADP-Glo biochemical assay", "details": "class ranges", "protocol": "(§1) The inhibitory activity against c-KIT was measured using ADP-Glo assay. The percent (%) inhibition at each concentration of compound is calculated based on and relative to the luminescence signal in the Max and Min control wells contained within each assay plate. The Max control wells contain enzyme and substrate as 0% inhibition, and the Min control wells only contain substrate without enzyme as 100% inhibition. The concentrations and % inhibition values for tested compounds are plotted and the concentration of compound required for 50% inhibition (IC50) is determined with a four-parameter logistic dose response equation. The ability of the compounds in Table 1 to inhibit c-KIT was determined.", "units": {"IC50": "nM"}, "values": [
      {"smiles": "COC(=O)N1CC(c2nc(-c3cc(F)c(C)c(NC(=O)c4cnc5ccc(N6CCN(C(C)=O)CC6)cn45)c3)no2)C1", "note": "[Compound C036, methyl 3-(3-(3-(6-(4-acetylpiperazin-1-yl)imidazo[1,2-a]pyridine-3-carboxamido)-5-fluoro-4-methylphenyl)-1,2,4-oxadiazol-5-yl)azetidine-1-carboxylate]", "IC50": "≤ 100"},
      {"smiles": "COC(=O)N1CC(c2nc(-c3cc(F)c(C)c(NC(=O)c4cnc5ccc(N6CCOCC6)cn45)c3)no2)C1", "note": "[Compound C009, methyl 3-(3-(3-fluoro-4-methyl-5-(6-morpholinoimidazo[1,2-a]pyridine-3-carboxamido)phenyl)-1,2,4-oxadiazol-5-yl)azetidine-1-carboxylate]", "IC50": "100 to 1000"},
      {"smiles": "COC(=O)N1CCC[C@@H](c2nc(-c3cc(F)c(C)c(NC(=O)c4cnc5ccccn45)c3)no2)C1", "note": "[Compound C049, methyl (R)-3-(3-(3-fluoro-5-(imidazo[1,2-a]pyridine-3-carboxamido)-4-methylphenyl)-1,2,4-oxadiazol-5-yl)piperidine-1-carboxylate]", "IC50": "100 to 1000"},
      {"smiles": "COC(=O)N1CC(c2nc(-c3cc(F)c(C)c(NC(=O)c4cnc5cc(C(N)=O)ccn45)c3)no2)C1", "note": "[Compound C043, methyl 3-(3-(3-(7-carbamoylimidazo[1,2-a]pyridine-3-carboxamido)-5-fluoro-4-methylphenyl)-1,2,4-oxadiazol-5-yl)azetidine-1-carboxylate]", "IC50": "≤ 100"},
      {"smiles": "COC(=O)N1CC(c2nc(-c3cc(F)c(C)c(NC(=O)c4cnc5ccccn45)c3)no2)C1", "note": "[Compound C003, methyl 3-(3-(3-fluoro-5-(imidazo[1,2-a]pyridine-3-carboxamido)-4-methylphenyl)-1,2,4-oxadiazol-5-yl)azetidine-1-carboxylate]", "IC50": "≤ 100"},
      {"smiles": "CC(=O)N1CCN(c2ccn3c(C(=O)Nc4cc(-c5noc(C6CC(F)(F)C6)n5)cc(F)c4C)cnc3c2)CC1", "note": "[Compound C018, 7-(4-acetylpiperazin-1-yl)-N-(5-(5-(3,3-difluorocyclobutyl)-1,2,4-oxadiazol-3-yl)-3-fluoro-2-methylphenyl)imidazo[1,2-a]pyridine-3-carboxamide]", "IC50": "100 to 1000"},
      {"smiles": "Cc1c(F)cc(-c2noc(C3CC(F)(F)C3)n2)cc1NC(=O)c1cnc2ccc(N3CCOCC3)cn12", "note": "[Compound C007, N-(5-(5-(3,3-difluorocyclobutyl)-1,2,4-oxadiazol-3-yl)-3-fluoro-2-methylphenyl)-6-morpholinoimidazo[1,2-a]pyridine-3-carboxamide]", "IC50": "100 to 1000"},
      {"smiles": "Cc1c(F)cc(-c2noc(C3CC(F)(F)C3)n2)cc1NC(=O)c1cnc2ccc(N3CCN(C)CC3)cn12", "note": "[Compound C033, N-(5-(5-(3,3-difluorocyclobutyl)-1,2,4-oxadiazol-3-yl)-3-fluoro-2-methylphenyl)-6-(4-methylpiperazin-1-yl)imidazo[1,2-a]pyridine-3-carboxamide]", "IC50": "100 to 1000"},
      {"smiles": "CCOC(=O)N1CC(c2nc(-c3cc(F)c(C)c(NC(=O)c4cnc5ccccn45)c3)no2)C1", "note": "[Compound C023, ethyl 3-(3-(3-fluoro-5-(imidazo[1,2-a]pyridine-3-carboxamido)-4-methylphenyl)-1,2,4-oxadiazol-5-yl)azetidine-1-carboxylate]", "IC50": "100 to 1000"}
    ]},
    {"molecular_target": "c-KIT (Homo sapiens, UniProt P10721)", "assay": "c-KIT ADP-Glo biochemical assay", "details": "comparison of prior art compounds (WO 2013/033167) with example 3 (C003)", "protocol": "as §1", "units": {"IC50": "nM"}, "values": [
      {"smiles": "COC(=O)N1CC(c2nc(-c3cc(F)c(C)c(NC(=O)c4cnc5ccccn45)c3)no2)C1", "note": "[Compound C003, methyl 3-(3-(3-fluoro-5-(imidazo[1,2-a]pyridine-3-carboxamido)-4-methylphenyl)-1,2,4-oxadiazol-5-yl)azetidine-1-carboxylate]", "IC50": 43}
    ]}
  ]
}
